Laboratory results: US20240173316A1, “Methods and Compositions for Treating Cancer” (Ohio Northern University, priority 2022, published 2024)

Assays:
[1] = biological target: RGS4-Galpha-q interaction (Homo sapiens (Human), UniProt P49798); assay: NanoBit RGS/Gα cell-based protein-protein interaction assay, RGS4; settings: for IC50: inhibition of RGS4-Galpha-q interaction, read-out: RGS4 IC50 μM (95% Cl)
Experimental: (§1) The NanoBit cell-based assay was performed as previously described. The NanoBit substrate (NanoGlo Live Cell Reagent) was prepared as a 5× stock, per the manufacture's protocol, and added to the wells at 10 μL per well. Post substrate addition, a baseline signal was established for 30 minutes using a BioTek Synergy 2 plate reader in luminescent mode. Post baseline read 10 μL of vehicle (Hank's Balanced Salt solution+20 mM HEPES) or AlF4 (stock solution: 40 mM NaF, 500 μM AlCl3) was added and luminescence was measured for an additional 30 minutes. Lastly, 4× compound or vehicle (DMSO) was added to the appropriate wells, and the plate was read for an additional hour. Data presented represents the mean of N=3 independent experiments±S.E.M. All data analysis was completed in GraphPad Prism 7 and 8.
(§2) All selected compounds were purchased and tested for their ability to inhibit RGS2-Galpha-q interaction in NanoBit assays. The same assay was also used to test the compounds' ability to inhibit RGS4-Galpha-q interaction as a measure of selectivity. RGS4 was not part of the docking calculations performed here because no structure is available for the human RGS4. It was used in the assays, nonetheless, to test for the validity of our docking approach to selectivity and binding.

NCI 60 cell panel = assay: NCI 60 Cell One-Dose Screen; type: cell-based, human; settings: single high dose 10^−5 M; leukemia, NSCLC, colon, CNS, melanoma, ovarian, renal, prostate, breast
Experimental: Another study was conducted to measure the cytotoxic effect of the RGS2 inhibitor. The growth reduction feature of direct RGS2 inhibitors was examined within the National Cancer Institute single high dose panel established that the drug was cytotoxic across a variety of cancers. Spanning across 60 standard cancer cell lines, this cytotoxicity assessment measured anti-proliferative activity within the following cancer types, with numerous subtypes below them: leukemia, non-small cell lung cancer, colon cancer, central nervous system cancer, melanoma, ovarian cancer, renal cancer, prostate cancer, and breast cancer.
The NCI 60 Cell One-Dose Screen is a standardized test carried out by National Cancer Institute, where a compound is tested at an initial single high dose (10^−5 M) across the full NCI 60 cell panel. Once a compound is assessed to be effective against a standard threshold number of cell lines, the compound is progresses to a full five-dose screen to determine anti-proliferative capability. This assay is ran relative to parallel studies with a no-drug control and at time zero number of cells.

[2] = biological target: RGS2-Galpha-q interaction (Homo sapiens (Human), UniProt P41220); assay: NanoBit RGS/Gα cell-based protein-protein interaction assay, RGS2; settings: for Selectivity: RGS4 IC50/RGS2 IC50; for IC50: inhibition of RGS2-Galpha-q interaction, read-out: RGS2 IC50 μM (95% Cl)
Sequence of RGS2-Galpha-q interaction (P41220 whole entry): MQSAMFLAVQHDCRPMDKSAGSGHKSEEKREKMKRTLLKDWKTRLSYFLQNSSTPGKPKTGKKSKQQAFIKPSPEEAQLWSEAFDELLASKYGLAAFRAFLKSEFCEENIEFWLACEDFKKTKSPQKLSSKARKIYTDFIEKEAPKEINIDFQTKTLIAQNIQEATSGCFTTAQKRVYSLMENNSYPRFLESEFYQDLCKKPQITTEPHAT
Experimental: as §1, §2

[3] = system: LNCaP prostate cancer cell line; assay: Wound healing (scratch) migration assay; type: cell-based, human; settings: 1 μM, more potently at 2 μM and higher
Experimental: It has previously been shown that RGS2 gene expression in the human prostate cancer cells LnCap were downgraded by infection with small hairpin RNA (shRNA) targeting the RGS2 gene (henceforth “shRGS2”). These shRGS2 LnCap cells expressed lower levels of RGS2 protein compared to the non-infected control, leading to a reduction in RGS2 activity.
Metastatic evaluation was carried out by a wound healing assay. A wound healing assay measures cell migration of individual cells, cell sheets, and clusters from one location to another. A single mechanical laceration was made on a 12-well plate growing a cancer cells monolayer that was grown overnight, and the cells were allowed to regrow across the inclusion over the span of 48 hours. Results were recorded between the knockdown shRGS2 and control in values of the closure % as the wound healing took place at 24 hour and 48 hour time points (FIG. 3). Results for the RGS2 inhibitor treated cells were recorded as pictures taken at 5 separate time points every 24 hours (FIG. 4A-H).

Sequence of RGS4-Galpha-q interaction (P49798 whole entry): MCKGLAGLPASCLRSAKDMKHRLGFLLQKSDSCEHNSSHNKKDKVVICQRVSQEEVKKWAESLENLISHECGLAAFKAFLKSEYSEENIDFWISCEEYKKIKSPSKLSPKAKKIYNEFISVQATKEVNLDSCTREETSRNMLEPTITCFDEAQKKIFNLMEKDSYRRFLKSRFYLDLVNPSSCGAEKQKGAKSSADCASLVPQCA

Row | Compound | IC50 [1] | cytotoxic effect across cancer types (NCI 60 cell panel) | Selectivity [2] | IC50 [2] | migration of LNCaP cells [3] | activity towards RGS4 ([1]; result in words)
1 | Nc1nc2c(nc(NCCCN3CCOCC3)n2[C@H]2O[C@@H](CO)[C@H](O)[C@@H]2O)c(=O)[nH]1 [AJ-1] | 10.1 µM | cytotoxic effect against all aforementioned cancers except prostate, ovarian, and colon cancer | 289 | 0.04 µM | – | –
2 | COc1ccc(Cn2nnnc2[C@H](c2cc3cc(C)ccc3[nH]c2=O)N2CCN(C3CCCCC3)CC2)cc1 [AJ-2] | 18.8 µM | – | 13 | 1.45 µM | – | –
3 | Cc1onc(C(=O)NNC(=O)Nc2ccc(Cl)cc2)c1C(=O)N1CCN(C(c2ccccc2)c2ccccc2)CC1 [AJ-3] | 21 µM | strong cytotoxic effect against the full list of cancers | 4.25 | 4.94 µM | inhibited the migration ability | –
4 | Cc1ccc([C@@H](C(=O)NC2CCCCC2)N(Cc2ccccc2Cl)C(=O)c2ccc(CN3CCOCC3)o2)o1 [AJ-4] | 25 µM | strong cytotoxic effect against the full list of cancers | 1.81 | 13.8 µM | – | –
5 | Cc1cc(C)c2[nH]c(=O)c([C@@H](c3nnnn3Cc3ccc4c(c3)OCO4)N3CCN(C)CC3)cc2c1 [AJ-5] | 23 µM | – | 1.53 | 15 µM | – | –
6 | Cc1cccc2cc([C@H](c3nnnn3Cc3ccc4c(c3)OCO4)N3CCN(C)CC3)c(=O)[nH]c12 [AJ-6] | ~9.6 µM | – | 0.48 | 19.8 µM | – | –
7 | Cn1c(=O)c2c(nc(NCc3ccccc3)n2C[C@H](O)CN2CCN(Cc3ccccc3)CC2)n(C)c1=O [AJ-7] | 14.1 µM | – | 0.51 | 27.6 µM | – | –
8 | CCc1ccc2[nH]c(=O)c(C(c3nnnn3Cc3ccc(F)cc3)N3CCN(C4CCCCC4)CC3)cc2c1 (stereo not drawn) [AJ-8] | 9.6 µM | strong cytotoxic effect against the full list of cancers | 0.29 | 33.1 µM | – | –
9 | Cc1cc(C)c2[nH]c(=O)c(C(c3nnnn3Cc3ccc(F)cc3)N3CCN(C4CCCCC4)CC3)cc2c1 (stereo not drawn) [AJ-9] | 91 µM | strong cytotoxic effect against the full list of cancers | 2.72 | 33.5 µM | – | –
10 | COCc1ccc2[nH]c(=O)c(C(c3nnnn3C[C@H]3CCCO3)N3CCN(Cc4ccccc4)CC3)cc2c1 (stereo partly drawn) [AJ-10] | – | strong cytotoxic effect against the full list of cancers | – | 78 µM | – | no apparent activity towards RGS4
